“Also recorded” adds a separate entry of the source. Where a SMILES comes first, the peptide text is derived from it.
Assays:
[1] = test system: antibody response to ovalbumin; assay: Adjuvant activity: antibody response to ovalbumin in mice, titer by solid-phase ELISA; format: in vivo, Balb/c mice; settings: for Adjuvant index / Anti-ovalbumin antibody titer: i.p.
Experimental: To study the adjuvant activity of RN-peptide, Balb/c mice were immunized with ovalbumin in saline in the presence of the RN-peptide, its analogs or GMDP, or without any adjuvant (control). The adjuvant was introduced on first immunization, whereas second immunization was carried out with half dose of OVA without adjuvant.
Adjuvant activity. Groups of 5 Balb/c mice were administered i.p. with 2.5-10 μg ovalbumin (Sigma, USA) per mouse in 200 μl PBS. RN-peptide (0.1-100 μg) or GMDP (1-100 μg) was introduced simultaneously with ovalbumin on first immunization. The second immunization was carried out 28 days later with half dose of ovalbumin (1.25-5.0 μg/200 μl) without adjuvant. Control mice received ovalbumin twice without adjuvant. Three days after the second immunization mice were bled from the tail vein. […] Control mice received polysaccharide without any adjuvant. Five and ten days after immunization mice were bled.
The antibody titer was evaluated by solid-phase ELISA as described by Douillard and Hoffman (1983) Enzyme-linked immunosorbent assay for screening monoclonal antibody production using enzyme-labeled second antibody. The antigen (ovalbumin or polysaccharide), 5 μg/ml in bicarbonate buffer, pH 8.6 (100 μl), was introduced into wells of 96-well microtiter plate. Incubation was carried out overnight at 4° C. The plate was washed 5 times with PBS and 5 times with PBS/0.1% Tween-20 (PBS-T). Remaining binding sites were blocked with 1% gelatin in PBS (2 h, room temperature). After washing 100 μl of mouse serum (1:100 dilution) was added, and serial three-fold dilutions were made. Bound antibodies were visualized by incubation with Horse-Radish-Peroxidase (HRP)-conjugated rabbit anti-mouse antibodies and OPD as the chromogenic substrate.

[2] = test system: Balb/c mice peritoneal mononuclear cells (PMC); assay: Ia-antigen-inducing effect, flow cytometry, peritoneal mononuclear cells; format: cell-based, mouse; settings: at optimal dose, overnight treatment
Experimental: (§1) We studied the Ia-antigen-inducing activity of RN-peptide by stimulation in vitro of murine peritoneal macrophages. Flow cytometry was used to assess Ia-antigen expression. […] The pyrogenicity of the peptide was studied in Wistar rats. […] The dynamics of alteration of rectal temperature were monitored during 2.5 h.
Balb/c mice peritoneal mononuclear cells (PMC) were isolated by Histopaque density gradient centrifugation. PMC or WEHI-3 cells were incubated with RN-peptide (0.1-10 μg/ml) or GMDP (positive control) or saline (negative control) in RPMI 1640 medium, supplemented with 5% fetal calf serum upon rotary mixing for 18 h at 37° C. Cells were stained on ice bath with MKD6 anti-Ia^d mAb (supernatant from the in vitro culture, 1:10 dilution) and FITC-labeled anti-mouse immunoglobulin (Sigma, USA, 1:300 dilution), and then with phycoerythrin-labeled F4/80 mAb (Caltag, USA, 0.2 μg/100 μl). Ia antigen expression was assessed by flow cytometry using EPICS “Elite” (Coulter, USA).

[3] = test system: antibody response to N. meningitidis serogroup C capsular polysaccharide; assay: Antibody response to N. meningitidis serogroup C capsular polysaccharide, passive agglutination test; format: in vivo, CBA mice; settings: 0.2 μg capsular polysaccharide i.v.
Experimental: Immunization with capsular polysaccharide of N. meningitidis serogroup C was carried out in CBA mice. Groups of 5 mice were administered i.v. with polysaccharide C (0.2 μg) in saline in the presence of 1-100 μg of RN-peptide. Control mice were immunized with optimal dose (2 μg/mouse) of polysaccharide. Four days later mice were bled from tail vein and the antibody titer was evaluated by passive agglutination test using commercial erythrocyte diagnostic kit.

E. coli strain K12 = assay: Anti-infective action: survival of Balb/c mice infected with E. coli strain K12; format: in vivo; settings: 1 ng-10 μg i.p. 7 days before infection, LD100 and LD50
Experimental: Groups of Balb/c mice (20-22 g) were administered i.p. with different doses of RN-peptide (1 ng-10 μg) or GMDP (1 ng-10 μg) in saline. Control mice received saline. […] Survival of mice was assessed during three days.

[4] = Immunogenicity of the peptide: anti-peptide antibody titer by solid-phase ELISA; format: in vivo, Balb/c mice; settings: mice immunized once or twice in PBS, 1-100 μg i.p.
Experimental: Immunogenicity of the peptide. Groups of Balb/c mice (5 mice) were immunized with 1-100 μg RN-peptide in PBS i.p. twice with 10-day interval. The anti-peptide antibody titer was estimated in pooled sera by solid-phase ELISA using MaxiSorb plates (Nunc, Denmark) coated with RN-peptide (10 μg/ml). The anti-peptide antibody titer was compared with the titer of normal mouse serum. E6/1.2 mAb was used as a positive control.

[5] = rat, in vivo, ip
Experimental: as §1
The pyrogenic effect SPF female Wistar rats were injected i.p. with a peptide (1.01 mg/kg; 5.74×10^−7 mole/kg) in PBS or with equal dose of GMDP (0.4 mg/kg; 5.74×10^−7 mole/kg). Rectal temperature was recorded every 5 minutes for 160 minutes using PowerLabe/4sp system with an electronic thermometer (MLT1403 Rectal Probe for Rats, AD Instruments USA). All data were quantified (mean±SEM) and compared by the variance analysis.

E. coli strain TG-1 = assay: Survival of Balb/c mice infected with E. coli strain TG-1; format: in vivo, mouse; settings: 2 ng i.p., 6 mice at 0 h
Experimental: Groups of Balb/c mice (20-22 g) were administered i.p. with RN-peptide, or GMDP, or saline (control), and then infected i.p. with E. coli strain TG-1 cells. Two doses of E. coli cells were used—1×10^8 (LD50) and 2×10^8 (LD100). Mice were infected one day (experiment A) or seven days (experiment B) after injection of the immunomodulator. Survival of mice was assessed during three days. Results showing that RN-peptide protects mice from lethal doses of E. coli infections (Table 4).

[6] = adjuvant 0.1 μg, ovalbumin 2.5 μg then 1.25 μg
[7] = adjuvant 1 μg, ovalbumin 2.5 μg then 1.25 μg
[8] = adjuvant 1 μg, ovalbumin 10 μg then 5 μg
[9] = adjuvant 10 μg, ovalbumin 2.5 μg then 1.25 μg
[10] = adjuvant 10 μg, ovalbumin 10 μg then 5 μg
[11] = adjuvant 100 μg, ovalbumin 2.5 μg then 1.25 μg
[12] = adjuvant 100 μg, ovalbumin 10 μg then 5 μg
[13] = Experiment A (infected one day after injection), 1 × 10^8 E. coli cells (LD50)
[14] = Experiment A (infected one day after injection), 2 × 10^8 E. coli cells (LD100)
[15] = Experiment B (infected seven days after injection), 1 × 10^8 E. coli cells (LD50)
[16] = Experiment B (infected seven days after injection), 2 × 10^8 E. coli cells (LD100)

What does the source list for CC[C@H](C)[C@H](NC(=O)[C@H](CCCCN)NC(=O)[C@H](C)NC(=O)[C@H](Cc1c[nH]cn1)NC(=O)[C@H](Cc1ccc(O)cc1)NC(=O)[C@H](CCCNC(=N)N)NC(=O)[C@@H]1CCCN1C(=O)[C@@H]1CCCN1C(=O)[C@@H](NC(=O)[C@@H](N)CCCNC(=N)N)C(C)C)C(=O)N[C@@H](CO)C(=O)N1CCC[C@H]1C(=O)N[C@@H](CCSC)C(=O)N[C@H](C(=O)N[C@@H](CC(N)=O)C(=O)O)C(C)C [RN-peptide, RVPPRYHAKISPMVN] (H-RVPPRYHAKISPMVN-OH)?
adjuvant dose of highest response ([1]; 2.5 μg OVA): 10 µg; anti-ovalbumin antibody titer (in words) ([1]; 100 μg/mouse): diminished; Adjuvant index [1, 6]: 0.92 ± 0.04; Anti-ovalbumin antibody titer [1, 6]: 2250 ± 100; Adjuvant index [1, 7]: 1.75 ± 0.06; Anti-ovalbumin antibody titer [1, 7]: 4300 ± 150; Adjuvant index [1, 8]: 7.3 ± 0.08; Anti-ovalbumin antibody titer [1, 8]: 43500 ± 400; Adjuvant index [1, 9]: 7.55 ± 0.06; Anti-ovalbumin antibody titer [1, 9]: 19000 ± 200; Adjuvant index [1, 10]: 2.6 ± 0.05; Anti-ovalbumin antibody titer [1, 10]: 15700 ± 280; Adjuvant index [1, 11]: 0.8 ± 0.008; Anti-ovalbumin antibody titer [1, 11]: 2000 ± 20; Adjuvant index [1, 12]: 0.9 ± 0.03; Anti-ovalbumin antibody titer [1, 12]: 5400 ± 200; adjuvant dose at which antibody titer peaked ([1]; first immunization with 5-10 μg of OVA): 1 μg/mouse; adjuvant activity (in words) ([1]; ovalbumin in mice): strongly enhanced antibody response; anti-ovalbumin antibody titer relative to the titer of control serum ([1]; under optimal conditions): 6.5-7.5 times; increase in Ia-positive cell number [2]: 10%; anti-polysaccharide antibody titer (in words) [3]: increased considerably; protection from E. coli infection (in words) (E. coli strain K12): substantial protection; also recorded: substantial anti-infective mode of action; anti-RN-peptide antibodies (humoral response to the peptide) [4]: did not reveal any anti-RN-peptide antibodies; also recorded: did not exceed the titer of native mice; increase in body temperature [5]: did not produce this effect; Number of survivors (E. coli strain TG-1; [13]): 5; surviving mice, 24 hours after infection (E. coli strain TG-1; [13]): 6; surviving mice, 28 hours after infection (E. coli strain TG-1; [13]): 5; surviving mice, 72 hours after infection (E. coli strain TG-1; [13]): 5; Number of survivors (E. coli strain TG-1; [14]): 2; surviving mice, 24 hours after infection (E. coli strain TG-1; [14]): 5; surviving mice, 28 hours after infection (E. coli strain TG-1; [14]): 5; surviving mice, 72 hours after infection (E. coli strain TG-1; [14]): 2; Number of survivors (E. coli strain TG-1; [15]): 4; surviving mice, 24 hours after infection (E. coli strain TG-1; [15]): 6; surviving mice, 28 hours after infection (E. coli strain TG-1; [15]): 5; surviving mice, 72 hours after infection (E. coli strain TG-1; [15]): 4; Number of survivors (E. coli strain TG-1; [16]): 1; surviving mice, 24 hours after infection (E. coli strain TG-1; [16]): 3; surviving mice, 28 hours after infection (E. coli strain TG-1; [16]): 3; surviving mice, 72 hours after infection (E. coli strain TG-1; [16]): 1
